Test results reported in patent publication US20100204203A1, “Chemical Compounds 637: Pyridopyrimidinediones as PDE4 Inhibitors” (priority 2007, published 2010).

Target: recombinant Human Phosphodiesterase B2 (PDE4B2) (Homo sapiens, UniProt Q07343)
Test: Human Phosphodiesterase B2 Radiometric Assay (yttrium silicate SPA beads, [3H]cyclic AMP)
Format: biochemical
Conditions: recombinant human PDE4B2, radiometric SPA assay, 8 nM [3H]cyclic AMP; read-out: PDE4B2 pIC50 (converted)
Outline: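 Read-out is scintillation proximity: yttrium silicate beads (with 18 mM ZnSO4, added to stop the reaction) bind 5′AMP formed from 8 nM [3H]cAMP over 20 min. Beforehand, compound and 0.1 mg/mL enzyme were preincubated 30 min at 30 °C in pH 7.5 HEPES buffer with MgCl2, EGTA and Brij 35; pIC50 values were curve-fitted.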

recombinant Human Phosphodiesterase B2 (PDE4B2), sequence (Q07343 1-564 isoform Q07343-2): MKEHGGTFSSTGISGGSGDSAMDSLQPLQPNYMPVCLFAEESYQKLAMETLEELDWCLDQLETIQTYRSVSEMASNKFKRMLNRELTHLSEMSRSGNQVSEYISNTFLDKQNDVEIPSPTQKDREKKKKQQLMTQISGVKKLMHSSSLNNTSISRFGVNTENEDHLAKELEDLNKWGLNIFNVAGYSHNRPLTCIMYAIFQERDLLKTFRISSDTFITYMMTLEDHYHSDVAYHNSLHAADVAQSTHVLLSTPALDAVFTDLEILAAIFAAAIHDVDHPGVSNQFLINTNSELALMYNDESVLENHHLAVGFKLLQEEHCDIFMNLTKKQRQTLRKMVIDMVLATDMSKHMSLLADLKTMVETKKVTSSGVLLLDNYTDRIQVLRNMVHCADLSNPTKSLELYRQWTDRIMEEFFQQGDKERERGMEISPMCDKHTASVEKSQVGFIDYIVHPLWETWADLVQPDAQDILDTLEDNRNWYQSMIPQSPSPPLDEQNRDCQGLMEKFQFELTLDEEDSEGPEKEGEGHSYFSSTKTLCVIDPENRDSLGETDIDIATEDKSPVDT

Row | IC50 [nM] | Compound
1 | 0.02 | O=c1c2cc(F)cnc2n(-c2cccc(-c3ccc(O)cc3CN3CCOCC3)c2)c(=O)n1[C@H]1CC[C@@H](NCc2cn3cc(F)ccc3n2)CC1 [Example 246]
2 | 0.0126 | Cc1cc(C(=O)N[C@H]2CC[C@@H](n3c(=O)c4cc(F)cnc4n(-c4cccc(-c5ccc(CN6CCC(N7CCCCC7)CC6)cc5)c4)c3=O)CC2)nn1C [Example 289, N-{cis-4-[1-[4′-(1,4′-bipiperidin-1′-ylmethyl)biphenyl-3-yl]-6-fluoro-2,4-dioxo-1,4-dihydropyrido[2,3-d]pyrimidin-3(2H)-yl]cyclohexyl}-1,5-dimethyl-1H-pyrazole-3-carboxamide]
3 | 0.398 | O=c1c2cc(F)cnc2n(-c2cccc(-c3ccc(O)cc3CN3CCOCC3)c2)c(=O)n1[C@H]1CC[C@@H](NCc2cn3c(n2)CCCC3)CC1 [Example 252, 6-Fluoro-1-[4′-hydroxy-2′-(morpholin-4-ylmethyl)biphenyl-3-yl]-3-{cis-4-[(5,6,7,8-tetrahydroimidazo[1,2-a]pyridin-2-ylmethyl)amino]cyclohexyl}pyrido[2,3-d]pyrimidine-2,4(1H,3H)-dione]
4 | 0.02 | CC(C)N1CCN(Cc2ccc(-c3cccc(-n4c(=O)n([C@H]5CC[C@@H](NC(=O)c6ccsc6)CC5)c(=O)c5cc(F)cnc54)c3)cc2)CC1 [Example 245, N-{cis-4-[6-fluoro-1-{4′-[(4-isopropylpiperazin-1-yl)methyl]biphenyl-3-yl}-2,4-dioxo-1,4-di-hydropyrido[2,3-d]pyrimidin-3(2H)-yl]cyclohexyl}thiophene-3-carboxamide]
5 | 0.158 | COC[C@H](C)N(C)Cc1cc(O)ccc1-c1cccc(-n2c(=O)n([C@H]3CC[C@@H](NCc4cn5cc(F)ccc5n4)CC3)c(=O)c3cc(F)cnc32)c1 [Example 315, 6-fluoro-3-(cis-4-{[(6-fluoroimidazo[1,2-a]pyridin-2-yl)methyl]amino}cyclohexyl)-1-(4′-hydroxy-2′-{[[(1S)-2-methoxy-1-methylethyl](methyl)amino]methyl}biphenyl-3-yl)pyrido[2,3-d]pyrimidine-2,4(1H,3H)-dione]
6 | 0.1 | Cc1cc(CN[C@H]2CC[C@@H](n3c(=O)c4cc(F)cnc4n(-c4cccc(-c5ccc(O)cc5CN5CCOCC5)c4)c3=O)CC2)nn1C [Example 251, 3-(cis-4-{[(1,5-Dimethyl-1H-pyrazol-3-yl)methyl]amino}cyclohexyl)-6-fluoro-1-[4′-hydroxy-2′-(morpholin-4-ylmethyl)biphenyl-3-yl]pyrido[2,3-d]pyrimidine-2,4(1H,3H)-dione]
7 | 0.251 | COCCN(C)Cc1cc(O)ccc1-c1cccc(-n2c(=O)n([C@H]3CC[C@@H](NCc4cn5cc(F)ccc5n4)CC3)c(=O)c3cc(F)cnc32)c1 [Example 327, 6-fluoro-3-(cis-4-{[(6-fluoroimidazo[1,2-a]pyridin-2-yl)methyl]amino}cyclohexyl)-1-(4′-hydroxy-2′-{[(2-methoxyethyl)(methyl)amino]methyl}biphenyl-3-yl)pyrido[2,3-d]pyrimidine-2,4(1H,3H)-dione]
8 | 0.0251 | Cc1cc(C(=O)N[C@H]2CC[C@@H](n3c(=O)c4cc(F)cnc4n(-c4cccc(-c5ccc(CN6CCNCC6)cc5)c4)c3=O)CC2)nn1C [Example 228, N-{cis-4-[6-fluoro-2,4-dioxo-1-[4′-(piperazin-1-ylmethyl)biphenyl-3-yl]-1,4-dihydropyrido[2,3-d]pyrimidin-3(2H)-yl]cyclohexyl}-1,5-dimethyl-1H-pyrazole-3-carboxamide]
9 | 0.02 | Cc1nc(C(=O)N[C@H]2CC[C@@H](n3c(=O)c4cc(F)cnc4n(-c4cccc(-c5ccc(CN6CCCNCC6)cc5)c4)c3=O)CC2)cs1 [Example 349, N-{cis-4-[1-[4′-(1,4-diazepan-1-ylmethyl)biphenyl-3-yl]-6-fluoro-2,4-dioxo-1,4-dihydropyrido[2,3-d]pyrimidin-3(2H)-yl]cyclohexyl}-2-methyl-1,3-thiazole-4-carboxamide]
10 | 0.794 | CN(C)Cc1ccc(-c2cccc(-n3c(=O)n([C@H]4CC[C@@H](NC(=O)c5ccccc5OCCO)CC4)c(=O)c4cc(F)cnc43)c2)cc1 [Example 272, N-{cis-4-[1-{4′-[(Dimethylamino)methyl]biphenyl-3-yl}-6-fluoro-2,4-dioxo-1,4-dihydropyrido[2,3-d]pyrimidin-3(2H)-yl]cyclohexyl}-2-(2-hydroxyethoxy)benzamide]

Further lines, the compound ahead of its results:

Row | Compound | IC50 [nM]
11 | O=c1c2cc(F)cnc2n(-c2cccc(-c3ccc(CN4CCOCC4)cc3)c2)c(=O)n1[C@H]1CC[C@@H](NCc2cn3cc(F)ccc3n2)CC1 [Example 76, 6-fluoro-3-(cis-4-{[(6-fluoroimidazo[1,2-a]pyridin-2-yl)methyl]amino}cyclohexyl)-1-[4′-(morpholin-4-ylmethyl)biphenyl-3-yl]pyrido[2,3-d]pyrimidine-2,4(1H,3H)-dione ditrifluoroacetic acid] | 0.316
12 | O=C(N[C@H]1CC[C@@H](n2c(=O)c3cc(F)cnc3n(-c3cccc(-c4ccc(CCN5CCOCC5)cc4)c3)c2=O)CC1)c1cn2cc(F)ccc2n1 [Example 50, 6-fluoro-N-{cis-4-[6-fluoro-1-[4′-(2-morpholin-4-ylethyl)biphenyl-3-yl]-2,4-dioxo-1,4-dihydropyrido[2,3-d]pyrimidin-3(2H)-yl]cyclohexyl}imidazo[1,2-c]pyridine-2-carboxamide] | 0.00794
13 | O=C(N[C@H]1CC[C@@H](n2c(=O)c3cc(F)cnc3n(-c3cccc(-c4ccc(CN5CCC(N6CCCCC6)CC5)cc4)c3)c2=O)CC1)c1cn2c(n1)CCCC2 [Example 223, N-{cis-4-[1-[4′-(1,4′-bipiperidin-1′-ylmethyl)biphenyl-3-yl]-6-fluoro-2,4-dioxo-1,4-dihydropyrido[2,3-d]pyrimidin-3(2H)-yl]cyclohexyl}-5,6,7,8-tetrahydroimidazo[1,2-a]pyridine-2-carboxamide] | 0.01
14 | O=C(N[C@H]1CC[C@@H](n2c(=O)c3cc(F)cnc3n(-c3cccc(-c4ccc(CCN5CCNCC5)cc4)c3)c2=O)CC1)c1cn2cc(F)ccc2n1 [Example 102, 6-fluoro-N-{cis-4-[6-fluoro-2,4-dioxo-1-[4′-(2-piperazin-1-ylethyl)biphenyl-3-yl]-1,4-dihydropyrido[2,3-d]pyrimidin-3 (2H)-yl]cyclohexyl}imidazo[1,2-c]pyridine-2-carboxamide] | 0.00794
15 | CC(C)(C)OC(=O)N1CCN(Cc2ccc(-c3cccc(-n4c(=O)n([C@H]5CC[C@@H](NC(=O)c6cn7cc(F)ccc7n6)CC5)c(=O)c5cc(F)cnc54)c3)cc2)CC1 [Example 51] | 0.0398
16 | CSc1ccccc1-c1cccc(-n2c(=O)n([C@H]3CC[C@@H](NC(=O)c4cn5cc(F)ccc5n4)CC3)c(=O)c3cc(F)cnc32)c1 [Example 17, 6-fluoro-N-{cis-4-[6-fluoro-1-[2′-(methylthio)biphenyl-3-yl]-2,4-dioxo-1,4-dihydropyrido[2,3-d]pyrimidin-3(2H)-yl]cyclohexyl}imidazo[1,2-a]pyridine-2-carboxamide.] | 0.00794
17 | CN(Cc1ccc(-c2cccc(-n3c(=O)n([C@H]4CC[C@@H](NC(=O)c5cn6c(n5)CCCC6)CC4)c(=O)c4cc(F)cnc43)c2)cc1)C(C)(C)C [Example 136, N-{cis-4-[1-(4′-{[tert-butyl(methyl)amino]methyl}biphenyl-3-yl)-6-fluoro-2,4-dioxo-1,4-dihydropyrido[2,3-d]pyrimidin-3(2H)-yl]cyclohexyl}-5,6,7,8-tetrahydroimidazo[1,2-a]pyridine-2-carboxamide] | 0.0316
18 | O=C(N[C@H]1CC[C@@H](n2c(=O)c3cc(F)cnc3n(-c3cccc(-c4cccc(CN5CCOCC5)c4)c3)c2=O)CC1)c1cn2cc(F)ccc2n1 [Example 13, 6-fluoro-N-{cis-4-[6-fluoro-1-[3′-(morpholin-4-ylmethyl)biphenyl-3-yl]-2,4-dioxo-1,4-dihydropyrido[2,3-d]pyrimidin-3(2H)-yl]cyclohexyl}imidazo[1,2-a]pyridine-2-carboxamide.] | 0.0631
19 | Cc1cc(C(=O)N[C@H]2CC[C@@H](n3c(=O)c4cc(F)cnc4n(-c4cccc(-c5ccc(CN6CCC(CO)CC6)cc5)c4)c3=O)CC2)nn1C [Example 116, N-{cis-4-[6-fluoro-1-(4′-{[4-(hydroxymethyl)piperidin-1-yl]methyl}biphenyl-3-yl)-2,4-dioxo-1,4-dihydropyrido[2,3-d]pyrimidin-3(2H)-yl]cyclohexyl}-1,5-dimethyl-1H-pyrazole-3-carboxamide] | 0.0501
20 | CCCN1CCN(Cc2ccc(-c3cccc(-n4c(=O)n([C@H]5CC[C@@H](NC(=O)C6(N(C)C)CC6)CC5)c(=O)c5cc(F)cnc54)c3)cc2)CC1 [Example 208, 1-(dimethylamino)-N-{cis-4-[6-fluoro-2,4-dioxo-1-{4′-[(4-propylpiperazin-1-yl)methyl]biphenyl-3-yl}-1,4-dihydropyrido[2,3-d]pyrimidin-3(2H)-yl]cyclohexyl} cyclopropanecarboxamide] | 0.0126
21 | O=C(N[C@H]1CC[C@@H](n2c(=O)c3cc(F)cnc3n(-c3cccc(-c4ccccc4)c3)c2=O)CC1)c1cn2cc(F)ccc2n1 [Example 1, N-[cis-4-(1-biphenyl-3-yl-6-fluoro-2,4-dioxo-1,4-dihydropyrido[2,3-d]pyrimidin-3(2H)-yl)cyclohexyl]-6-fluoroimidazo[1,2-c]pyridine-2-carboxamide] | 0.0251
22 | O=C(N[C@H]1CC[C@@H](n2c(=O)c3cc(F)cnc3n(-c3cccc(-c4ccc(CN5CCC[C@H]5CO)cc4)c3)c2=O)CC1)c1cn2c(n1)CCCC2 [Example 226, N-{cis-4-[6-fluoro-1-(4′-{[(2S)-2-(hydroxymethyl)pyrrolidin-1-yl]methyl}biphenyl-3-yl)-2,4-dioxo-1,4-dihydropyrido[2,3-d]pyrimidin-3(2H)-yl]cyclohexyl}-5,6,7,8-tetrahydroimidazo[1,2-a]pyridine-2-carboxamide] | 0.0501
23 | O=C(N[C@H]1CC[C@@H](n2c(=O)c3cc(F)cnc3n(-c3cccc(Cc4ccccc4)c3)c2=O)CC1)c1cn2ccccc2n1 [Example 34, N-{cis-4-[1-(3-benzylphenyl)-6-fluoro-2,4-dioxo-1,4-dihydropyrido[2,3-c]pyrimidin-3(2H)-yl]cyclohexyl}imidazo[1,2-a]pyridine-2-carboxamide] | 0.126
